Measured values reported in ChEMBL document CHEMBL4342459, “The Race to Bash NASH: Emerging Targets and Drug Development in a Complex Liver Disease” (J Med Chem, 2020).

Experiments:
[1] = target: T1, Diacylglycerol O-acyltransferase 2 (Homo sapiens, UniProt Q96PD7); experiment: Inhibition of recombinant FLAG-tagged human DGAT2 expressed in SF9 cells after 1 hr by TopCount assay
T1 sequence (Q96PD7 whole entry): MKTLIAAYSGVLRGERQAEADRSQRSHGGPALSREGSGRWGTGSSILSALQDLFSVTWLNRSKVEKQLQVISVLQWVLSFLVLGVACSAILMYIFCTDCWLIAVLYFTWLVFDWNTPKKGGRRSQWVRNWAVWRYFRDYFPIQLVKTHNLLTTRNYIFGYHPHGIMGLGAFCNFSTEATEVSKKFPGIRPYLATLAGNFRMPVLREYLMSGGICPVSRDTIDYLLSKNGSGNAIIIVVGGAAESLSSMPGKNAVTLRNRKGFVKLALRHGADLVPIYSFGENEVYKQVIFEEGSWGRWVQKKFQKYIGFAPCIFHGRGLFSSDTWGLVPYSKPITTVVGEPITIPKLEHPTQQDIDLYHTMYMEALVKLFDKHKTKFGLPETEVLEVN

[2] = target: T2, Diacylglycerol O-acyltransferase 1 (Homo sapiens, UniProt O75907); experiment: Inhibition of recombinant FLAG-tagged human DGAT1 expressed in SF9 cells after 1 hr by TopCount assay
T2 sequence (O75907 whole entry): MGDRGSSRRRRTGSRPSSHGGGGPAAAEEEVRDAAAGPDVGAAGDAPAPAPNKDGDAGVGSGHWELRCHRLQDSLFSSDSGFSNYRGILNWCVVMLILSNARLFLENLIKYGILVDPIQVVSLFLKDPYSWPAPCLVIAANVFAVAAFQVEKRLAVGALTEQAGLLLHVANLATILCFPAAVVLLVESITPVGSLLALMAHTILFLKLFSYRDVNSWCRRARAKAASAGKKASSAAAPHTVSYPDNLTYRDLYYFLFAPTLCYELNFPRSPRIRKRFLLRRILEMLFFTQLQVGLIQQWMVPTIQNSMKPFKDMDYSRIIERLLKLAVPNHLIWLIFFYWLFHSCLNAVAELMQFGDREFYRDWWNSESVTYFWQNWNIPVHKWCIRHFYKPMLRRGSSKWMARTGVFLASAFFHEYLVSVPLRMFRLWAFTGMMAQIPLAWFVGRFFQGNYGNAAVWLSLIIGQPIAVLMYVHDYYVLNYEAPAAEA

[3] = Oral bioavailability in rat; type: ADME, organism-based; conditions: in vivo
[4] = Half life in rat; type: ADME; conditions: in vivo

| SMILES | IC50 [1] [nM] | IC50 [2] [nM] | bioavailability [3] [%] | half-life [4] [h] |
| --- | --- | --- | --- | --- |
| Cc1nc(C)c(-c2ccc(C3CCC(CC(=O)O)CC3)cc2)nc1C(N)=O (centres undefined) [AZD-7687] | 80 | > 300000 | – | – |
| CC(C)c1onc(-c2c(Cl)cccc2Cl)c1COc1ccc(/C=C/c2cccc(C(=O)O)c2)c(Cl)c1 | – | – | 10 | 3.5 |
